Target: T1, Xanthine oxidase (XOD) (Bos taurus, UniProt P80457)
T1 construct: gene XDH
Assay: spectrophotometric XOD inhibition assay at […] nm with xanthine substrate, cow milk enzyme
Format: biochemical

T1 sequence (P80457 2-1332): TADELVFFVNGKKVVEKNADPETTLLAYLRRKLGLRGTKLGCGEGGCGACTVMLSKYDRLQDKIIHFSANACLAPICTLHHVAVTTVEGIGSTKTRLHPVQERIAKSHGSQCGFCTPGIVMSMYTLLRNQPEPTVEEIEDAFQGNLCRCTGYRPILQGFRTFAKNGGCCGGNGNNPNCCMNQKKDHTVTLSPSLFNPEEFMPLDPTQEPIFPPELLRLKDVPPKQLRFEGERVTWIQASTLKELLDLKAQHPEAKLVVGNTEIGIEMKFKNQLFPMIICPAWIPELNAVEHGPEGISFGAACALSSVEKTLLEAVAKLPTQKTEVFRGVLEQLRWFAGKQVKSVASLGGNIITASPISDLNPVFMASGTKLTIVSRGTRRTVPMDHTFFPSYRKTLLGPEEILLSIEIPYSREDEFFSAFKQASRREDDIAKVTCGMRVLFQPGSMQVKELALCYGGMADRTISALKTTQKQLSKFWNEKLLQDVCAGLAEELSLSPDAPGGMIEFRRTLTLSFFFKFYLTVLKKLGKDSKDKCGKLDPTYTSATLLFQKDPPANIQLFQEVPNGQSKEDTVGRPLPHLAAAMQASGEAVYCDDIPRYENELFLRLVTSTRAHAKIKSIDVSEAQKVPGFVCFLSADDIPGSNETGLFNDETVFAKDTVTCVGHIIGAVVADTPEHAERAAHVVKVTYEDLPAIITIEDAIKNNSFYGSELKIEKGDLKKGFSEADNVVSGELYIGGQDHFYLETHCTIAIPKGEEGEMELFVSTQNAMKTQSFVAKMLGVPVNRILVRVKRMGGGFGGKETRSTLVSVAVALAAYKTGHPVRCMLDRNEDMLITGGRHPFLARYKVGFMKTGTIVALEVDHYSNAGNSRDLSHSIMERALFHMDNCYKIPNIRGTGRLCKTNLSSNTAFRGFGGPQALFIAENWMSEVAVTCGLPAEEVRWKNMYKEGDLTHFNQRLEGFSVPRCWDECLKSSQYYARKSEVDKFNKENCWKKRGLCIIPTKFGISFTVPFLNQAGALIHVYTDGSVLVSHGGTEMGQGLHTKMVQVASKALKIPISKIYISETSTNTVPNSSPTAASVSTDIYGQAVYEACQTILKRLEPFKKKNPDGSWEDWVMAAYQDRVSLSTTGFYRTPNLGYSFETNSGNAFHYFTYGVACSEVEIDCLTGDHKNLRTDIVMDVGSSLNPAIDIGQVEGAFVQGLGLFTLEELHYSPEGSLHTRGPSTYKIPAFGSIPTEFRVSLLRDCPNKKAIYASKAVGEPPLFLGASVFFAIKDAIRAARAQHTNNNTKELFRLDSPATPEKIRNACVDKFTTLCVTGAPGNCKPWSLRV

COc1ccc2c(c1OC)CN1CCc3cc4c(cc3C1=C2)OCO4 [DHB, Dihydroberberine]
IC50: 34.4 ± 2.84 µM

— paper PMC8093860, “Anti-Hyperuricemic and Nephroprotective Effects of Dihydroberberine in Potassium Oxonate- and Hypoxanthine-Induced Hyperuricemic Mice” (Frontiers in Pharmacology, 2021)
